Assays:
[1] = target: Dipeptidyl peptidase 2 (Homo sapiens, UniProt Q9UHL4)
Description: Inhibitory concentration against dipeptidylpeptidase II (QPP)

[2] = target: Dipeptidyl peptidase 8 (Homo sapiens, UniProt Q6V1X1)
Description: Inhibitory concentration against dipeptidylpeptidase 8

[3] = target: Dipeptidyl peptidase 9 (Homo sapiens, UniProt Q86TI2)
Description: Inhibitory concentration against dipeptidylpeptidase 9

[4] = target: Dipeptidyl peptidase 4 (Homo sapiens, UniProt P27487)
Description: Inhibitory concentration against dipeptidylpeptidase IV

[5] = Half -life in rat; type: ADME; conditions: in vivo
[6] = Plasma clearance in rat; type: ADME, organism-based; conditions: read-out: Clp
[7] = in vivo; conditions: rat
[8] = Half-life in rat; type: ADME; conditions: in vivo
[9] = Half-life in rhesus monkey; type: ADME; conditions: cercopithecidae, in vivo
[10] = target: T1, Dipeptidyl peptidase 4 (Mus musculus, UniProt P28843); experiment: Inhibitory concentration against mouse dipeptidylpeptidase IV in presence of 15% mouse serum
T1 sequence (P28843 whole entry): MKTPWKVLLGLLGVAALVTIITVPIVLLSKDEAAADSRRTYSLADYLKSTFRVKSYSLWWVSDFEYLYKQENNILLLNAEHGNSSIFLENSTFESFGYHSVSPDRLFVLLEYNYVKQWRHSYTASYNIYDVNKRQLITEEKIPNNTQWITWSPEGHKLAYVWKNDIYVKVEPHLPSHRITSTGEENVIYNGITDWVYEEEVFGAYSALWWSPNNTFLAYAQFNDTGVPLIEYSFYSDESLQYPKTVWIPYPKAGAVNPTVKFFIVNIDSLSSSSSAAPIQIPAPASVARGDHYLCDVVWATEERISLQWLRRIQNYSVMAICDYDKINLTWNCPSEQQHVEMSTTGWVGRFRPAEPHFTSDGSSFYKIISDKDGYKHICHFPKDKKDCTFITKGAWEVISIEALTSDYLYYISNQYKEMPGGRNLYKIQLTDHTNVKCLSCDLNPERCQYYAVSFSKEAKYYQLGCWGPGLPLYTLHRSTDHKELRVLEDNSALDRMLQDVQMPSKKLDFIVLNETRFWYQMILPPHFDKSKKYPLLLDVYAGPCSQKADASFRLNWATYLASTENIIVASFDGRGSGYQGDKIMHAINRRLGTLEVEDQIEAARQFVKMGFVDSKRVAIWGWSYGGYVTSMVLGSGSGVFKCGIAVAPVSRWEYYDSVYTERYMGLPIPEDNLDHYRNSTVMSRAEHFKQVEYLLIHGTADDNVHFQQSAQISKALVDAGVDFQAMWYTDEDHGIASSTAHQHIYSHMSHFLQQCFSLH

[11] = Plasma clearance in rhesus monkey; type: ADME, organism-based; conditions: cercopithecidae, read-out: Clp
[12] = Plasma clearance in dog; type: ADME, organism-based, Canis lupus familiaris; conditions: read-out: Clp
[13] = target: T1, Dipeptidyl peptidase 4; experiment: Inhibitory concentration against mouse dipeptidylpeptidase IV in presence of 50% mouse serum
[14] = target: T1, Dipeptidyl peptidase 4; experiment: Inhibitory concentration against mouse dipeptidylpeptidase IV in presence of 3% mouse serum
[15] = Half-life in dog; type: ADME, Canis lupus familiaris; conditions: in vivo

Sequence of Dipeptidyl peptidase 9 (Q86TI2 whole entry): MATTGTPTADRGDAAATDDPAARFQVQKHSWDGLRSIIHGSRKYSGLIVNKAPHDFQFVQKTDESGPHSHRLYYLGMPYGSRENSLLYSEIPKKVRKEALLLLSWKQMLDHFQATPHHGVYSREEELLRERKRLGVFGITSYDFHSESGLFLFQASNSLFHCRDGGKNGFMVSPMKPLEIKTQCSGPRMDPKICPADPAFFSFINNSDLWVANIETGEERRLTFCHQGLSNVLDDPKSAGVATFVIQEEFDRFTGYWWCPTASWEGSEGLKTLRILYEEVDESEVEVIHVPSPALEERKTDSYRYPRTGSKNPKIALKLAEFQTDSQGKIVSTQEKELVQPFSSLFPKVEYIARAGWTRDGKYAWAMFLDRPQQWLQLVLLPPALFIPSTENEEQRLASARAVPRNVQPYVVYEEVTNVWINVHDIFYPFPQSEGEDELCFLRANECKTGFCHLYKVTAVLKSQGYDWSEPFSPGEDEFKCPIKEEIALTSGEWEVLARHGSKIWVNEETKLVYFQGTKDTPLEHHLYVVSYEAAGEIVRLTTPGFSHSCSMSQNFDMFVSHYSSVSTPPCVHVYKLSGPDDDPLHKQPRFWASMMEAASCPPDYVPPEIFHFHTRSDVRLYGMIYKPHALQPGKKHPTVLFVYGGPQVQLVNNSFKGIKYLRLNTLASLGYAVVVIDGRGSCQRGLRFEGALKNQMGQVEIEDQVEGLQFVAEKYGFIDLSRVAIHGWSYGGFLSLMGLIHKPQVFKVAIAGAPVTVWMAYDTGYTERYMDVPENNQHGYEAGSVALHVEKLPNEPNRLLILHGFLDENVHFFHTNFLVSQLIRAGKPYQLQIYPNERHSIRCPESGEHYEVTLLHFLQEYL
Sequence of Dipeptidyl peptidase 4 (Homo sapiens, UniProt P27487) (P27487 whole entry): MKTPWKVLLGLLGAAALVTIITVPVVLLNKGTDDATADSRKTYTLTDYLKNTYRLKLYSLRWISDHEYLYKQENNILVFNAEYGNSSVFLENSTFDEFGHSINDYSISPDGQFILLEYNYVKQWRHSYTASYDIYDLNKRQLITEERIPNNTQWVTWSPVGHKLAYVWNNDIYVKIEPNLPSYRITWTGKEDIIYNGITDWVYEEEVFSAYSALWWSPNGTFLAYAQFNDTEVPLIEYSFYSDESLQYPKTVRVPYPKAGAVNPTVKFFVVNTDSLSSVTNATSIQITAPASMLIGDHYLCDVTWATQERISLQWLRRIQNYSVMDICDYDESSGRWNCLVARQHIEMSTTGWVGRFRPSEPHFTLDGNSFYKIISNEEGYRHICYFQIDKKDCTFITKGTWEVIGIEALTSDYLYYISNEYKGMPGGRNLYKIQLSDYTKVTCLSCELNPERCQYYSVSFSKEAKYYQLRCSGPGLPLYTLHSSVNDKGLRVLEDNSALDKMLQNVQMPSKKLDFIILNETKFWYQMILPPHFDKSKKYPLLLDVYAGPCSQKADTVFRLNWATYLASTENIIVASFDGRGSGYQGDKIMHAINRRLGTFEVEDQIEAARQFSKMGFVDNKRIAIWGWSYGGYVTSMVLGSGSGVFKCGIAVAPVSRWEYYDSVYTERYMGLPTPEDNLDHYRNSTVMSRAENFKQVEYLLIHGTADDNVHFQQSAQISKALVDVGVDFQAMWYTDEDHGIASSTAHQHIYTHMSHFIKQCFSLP
Sequence of Dipeptidyl peptidase 8 (Q6V1X1 whole entry): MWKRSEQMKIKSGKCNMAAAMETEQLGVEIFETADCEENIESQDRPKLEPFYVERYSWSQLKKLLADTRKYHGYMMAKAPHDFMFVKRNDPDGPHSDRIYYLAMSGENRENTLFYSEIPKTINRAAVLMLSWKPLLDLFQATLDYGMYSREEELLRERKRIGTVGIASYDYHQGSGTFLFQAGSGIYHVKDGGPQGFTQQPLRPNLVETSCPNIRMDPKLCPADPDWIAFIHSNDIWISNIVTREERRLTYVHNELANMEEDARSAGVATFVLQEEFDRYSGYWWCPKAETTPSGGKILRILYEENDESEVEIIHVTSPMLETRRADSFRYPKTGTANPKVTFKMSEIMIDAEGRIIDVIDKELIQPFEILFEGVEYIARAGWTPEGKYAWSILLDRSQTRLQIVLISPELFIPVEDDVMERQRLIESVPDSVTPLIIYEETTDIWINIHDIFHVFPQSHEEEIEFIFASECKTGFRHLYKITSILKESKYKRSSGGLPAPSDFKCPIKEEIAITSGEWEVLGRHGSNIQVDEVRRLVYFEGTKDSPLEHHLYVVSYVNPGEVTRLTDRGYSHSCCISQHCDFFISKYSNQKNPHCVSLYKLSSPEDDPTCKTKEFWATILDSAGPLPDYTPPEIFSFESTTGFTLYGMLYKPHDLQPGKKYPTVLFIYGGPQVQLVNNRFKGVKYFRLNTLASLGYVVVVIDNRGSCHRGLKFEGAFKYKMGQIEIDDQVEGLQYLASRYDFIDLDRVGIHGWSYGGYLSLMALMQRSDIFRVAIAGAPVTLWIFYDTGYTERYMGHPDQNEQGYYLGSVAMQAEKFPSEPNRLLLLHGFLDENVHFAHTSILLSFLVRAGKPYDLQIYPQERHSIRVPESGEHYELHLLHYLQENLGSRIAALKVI

Compound | IC50 [1] [µM] | IC50 [2] [µM] | IC50 [3] [µM] | IC50 [4] [nM] | also measured
COC(=O)[C@@H](c1ccc(-c2ccc(F)cc2)cc1)[C@H](N)C(=O)N1CC[C@H](F)C1 | 21 | > 100 | > 100 | 220 | 
CCNC(=O)[C@@H](c1ccc(-c2ccc(F)cc2)cc1)[C@H](N)C(=O)N1CC[C@H](F)C1 | 90 | > 100 | > 100 | 110 | 
N[C@H](C(=O)N1CC[C@H](F)C1)[C@@H](CN1CCCC1)c1ccc(-c2ccc(F)cc2)cc1 | 0.7 |  | > 100 | 3500 | 
NC(=O)[C@@H](c1ccc(-c2ccc(F)cc2)cc1)[C@H](N)C(=O)N1CC[C@H](F)C1 | > 100 | > 100 | > 100 | 110 | 
CN(C)C[C@@H](c1ccc(-c2ccc(F)cc2)cc1)[C@H](N)C(=O)N1CC[C@H](F)C1 | 2.5 |  | > 100 | 1600 | 
N[C@H](C(=O)N1CC[C@H](F)C1)[C@@H](C(=O)NCCO)c1ccc(-c2ccc(F)cc2)cc1 |  |  | > 100 | 94 | 
CC(C)NC(=O)[C@@H](c1ccc(-c2ccc(F)cc2)cc1)[C@H](N)C(=O)N1CC[C@H](F)C1 | 76 |  | > 100 | 99 | 
N[C@H](C(=O)N1CC[C@H](F)C1)[C@@H](CO)c1ccc(-c2ccc(F)cc2)cc1 | 15 | > 100 | > 100 | 390 | 
N[C@H](C(=O)N1CC[C@H](F)C1)[C@@H](Cn1cnnn1)c1ccc(-c2ccc(F)cc2)cc1 | > 100 | > 100 | > 100 | 192 | 
CN(C)C(=O)[C@@H](c1ccc(-c2ccc(F)cc2)cc1)[C@H](N)C(=O)N1CCCCC1 | 38 | > 100 | > 100 | 550 | 
N[C@H](C(=O)N1CC[C@H](F)C1)[C@@H](C(=O)NC1CC1)c1ccc(-c2ccc(F)cc2)cc1 | 55 |  | > 100 | 71 | 
CN(C)C(=O)[C@@H](c1ccc(-c2ccc(F)cc2)cc1)[C@H](N)C(=O)N1CCC1 | > 100 | > 100 | > 100 | 100 | 
CN(C)C(=O)[C@@H](c1ccc(-c2ccc(F)cc2)cc1)[C@H](N)C(=O)N1CC[C@H](F)C1.O=C(O)C(F)(F)F |  |  |  |  | half-life [9]: 282 min; IC50 [10]: 71 nM; clearance [11]: 2.4 mL/min/kg; clearance [12]: 1.5 mL/min/kg; IC50 [13]: 230 nM; IC50 [14]: 50 nM; half-life [15]: 366 min; clearance [6]: 4.8 mL/min/kg; half-life [8]: 210 min
N[C@@H](Cc1ccc(-c2ccc(F)cc2)cc1)C(=O)N1CC[C@H](F)C1 | > 100 | > 100 | > 100 | 980 | 
CN(C)C(=O)[C@@H](c1ccc(-c2ccc(F)cc2)cc1)[C@H](N)C(=O)N1CCOCC1 | 77 | > 100 | > 100 | 520 | 
CN(C)C(=O)[C@@H](c1ccc(-c2ccc(F)cc2)cc1)[C@H](N)C(=O)N1CCS(=O)(=O)C1 | 75 | > 100 | > 100 | 230 | 

The remaining molecules from weak to strong by IC50 [4], led by results:

IC50 [1] [µM] | IC50 [2] [µM] | IC50 [3] [µM] | IC50 [4] [nM] | Compound | also measured
> 100 |  | > 100 | 67 | CN(C)NC(=O)[C@@H](c1ccc(-c2ccc(F)cc2)cc1)[C@H](N)C(=O)N1CC[C@H](F)C1 | 
48 |  | > 100 | 59 | CCN(CC)C(=O)[C@@H](c1ccc(-c2ccc(F)cc2)cc1)[C@H](N)C(=O)N1CC[C@H](F)C1 | 
11 |  | > 100 | 56 | CN(C)C(=O)[C@@H](c1ccc(-c2cc(F)ccc2F)cc1)[C@H](N)C(=O)N1CC[C@H](F)C1 | 
> 100 |  | > 100 | 45 | CON(C)C(=O)[C@@H](c1ccc(-c2ccc(F)cc2)cc1)[C@H](N)C(=O)N1CC[C@H](F)C1 | 
5.3 |  | > 100 | 44 | N[C@H](C(=O)N1CC[C@H](F)C1)[C@@H](C(=O)N1CCC1)c1ccc(-c2ccc(F)cc2)cc1 | 
57 |  |  | 43 | CN(C)C(=O)[C@@H](c1ccc(-c2cccc(C#N)c2)cc1)[C@H](N)C(=O)N1CC[C@H](F)C1 | 
> 100 |  | > 100 | 37 | CNC(=O)[C@@H](c1ccc(-c2ccc(F)cc2)cc1)[C@H](N)C(=O)N1CC[C@H](F)C1 | 
9.4 | > 100 | > 100 | 29 | CN(C)C(=O)[C@@H](c1ccc(-c2ccc(F)cc2)cc1)[C@H](N)C(=O)N1CC(F)(F)C1 | 
7.1 |  |  | 27 | CN(C)C(=O)[C@@H](c1ccc(-c2ccc(F)cc2)cc1)[C@H](N)C(=O)N1CCC(F)(F)C1 | 
44 |  |  | 21 | CN(C)C(=O)[C@@H](c1ccc(-c2ccc(F)c(F)c2)cc1)[C@H](N)C(=O)N1CC[C@H](F)C1 | 
81 | > 100 | > 100 | 21 | CN(C)C(=O)[C@@H](c1ccc(-c2cccc(S(C)(=O)=O)c2)cc1)[C@H](N)C(=O)N1CC[C@H](F)C1 | 
89 | > 100 |  | 20 | CN(C)C(=O)[C@@H](c1ccc(-c2ccc(-[n+]3ccccc3)cc2)cc1)[C@H](N)C(=O)N1CC[C@H](F)C1 | 
43 |  | > 100 | 20 | CCN(C)C(=O)[C@@H](c1ccc(-c2ccc(F)cc2)cc1)[C@H](N)C(=O)N1CC[C@H](F)C1 | 
57 |  | > 100 | 19 | CN(C)C(=O)[C@@H](c1ccc(-c2cccc(-[n+]3ccccc3)c2)cc1)[C@H](N)C(=O)N1CC[C@H](F)C1 | 
58 | > 100 | > 100 | 17 | CN(C)C(=O)[C@@H](c1ccc(-c2ccc(F)cc2)cc1)[C@H](N)C(=O)N1CC(F)C1 | 
15 |  | > 100 | 13 | CN(C)C(=O)[C@@H](c1ccc(-c2ccc(F)cc2F)cc1)[C@H](N)C(=O)N1CC[C@H](F)C1 | 
> 100 |  | > 100 | 11 | N[C@H](C(=O)N1CC[C@H](F)C1)[C@@H](C(=O)Nn1cnnn1)c1ccc(-c2ccc(F)cc2)cc1.O=C(O)C(F)(F)F | clearance [6]: 55 mL/min/kg; half-life [8]: 12 min; bioavailability [7]: < 1%
5.6 |  |  | 9.2 | N[C@H](C(=O)N1CC[C@H](F)C1)[C@@H](C(=O)N1CCCC1)c1ccc(-c2ccc(F)cc2)cc1.O=C(O)C(F)(F)F | clearance [6]: 18 mL/min/kg; half-life [8]: 102 min; bioavailability [7]: 21%
8.5 |  |  | 9.1 | CN(C)C(=O)[C@@H](c1ccc(-c2ccc(F)cc2)cc1)[C@H](N)C(=O)N1CCSC1 | 
26 |  |  | 7.5 | CN(C)C(=O)[C@@H](c1ccc(-c2ccc(F)cc2)cc1)[C@H](N)C(=O)N1CCCC1.O=C(O)C(F)(F)F | clearance [6]: 16 mL/min/kg; half-life [8]: 120 min; bioavailability [7]: 100%
> 100 | > 100 | > 100 | 6.6 | N[C@H](C(=O)N1CC[C@H](F)C1)[C@@H](C(=O)O)c1ccc(-c2ccc(F)cc2)cc1.O=C(O)C(F)(F)F | half-life [5]: 186 min; clearance [6]: 0.25 mL/min/kg; bioavailability [7]: 16%
40 |  |  | 3.3 | CN(C)C(=O)[C@@H](c1ccc(-c2ccc(F)cc2)cc1)[C@H](N)C(=O)N1CCC[C@H]1C#N | 
29 | > 100 | > 100 | 2.2 | CN(C)C(=O)[C@@H](c1ccc(-c2cccc(-n3cnnn3)c2)cc1)[C@H](N)C(=O)N1CC[C@H](F)C1.O=C(O)C(F)(F)F | clearance [6]: 18 mL/min/kg; half-life [8]: 44.4 min; bioavailability [7]: < 1%
